Read-outs that look alike come from different tables or passages of the source. Where a SMILES comes first, the peptide text is derived from it. [ ]: non-standard residue; d: D form. Nle = CCCC[C@H](N)C(=O)O

Experiment [1] addresses T1, human PTH/PTHrP receptor (Homo sapiens, UniProt Q03431).
T1 sequence (Q03431 27-593): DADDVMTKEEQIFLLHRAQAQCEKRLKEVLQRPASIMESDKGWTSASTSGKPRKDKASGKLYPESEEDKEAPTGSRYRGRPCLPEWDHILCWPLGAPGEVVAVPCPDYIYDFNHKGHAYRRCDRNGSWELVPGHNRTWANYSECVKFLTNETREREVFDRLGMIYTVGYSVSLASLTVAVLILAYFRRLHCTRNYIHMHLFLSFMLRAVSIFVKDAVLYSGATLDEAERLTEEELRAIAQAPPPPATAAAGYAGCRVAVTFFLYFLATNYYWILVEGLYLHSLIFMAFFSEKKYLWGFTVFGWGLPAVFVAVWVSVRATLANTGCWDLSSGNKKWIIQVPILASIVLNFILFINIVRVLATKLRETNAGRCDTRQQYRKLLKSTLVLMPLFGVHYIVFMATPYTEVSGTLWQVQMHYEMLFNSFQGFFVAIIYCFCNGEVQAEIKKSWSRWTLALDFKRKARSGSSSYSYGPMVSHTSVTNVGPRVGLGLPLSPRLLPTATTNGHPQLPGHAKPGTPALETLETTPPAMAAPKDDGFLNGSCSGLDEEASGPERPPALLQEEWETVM
Nature of the experiment: Urokinase-type plasminogen activator (u-PA) secretion bioassay in LLC-PK1 cells expressing human PTHR. The note with it: AB45 cells (hPTHR + REV AB dominant-negative PKA inhibitor), 16 hr.
Experimental: Cells were seeded into 96-well plates at a density of 6×10^4 cells/well and used the following day. The cells were washed once with 0.2 ml and then refed with 0.1 ml of prewarmed DMEM containing 0.05% BSA. After adding each stimulator, plates were returned to the incubator at 37° C. for 16 h. Conditioned medium (5 ul) then was transferred from each well to a clean microplate. […] Activity was expressed in Ploug units/well, using purified human urokinase (Calbiochem) as a standard.
Cells were incubated with the indicated peptides (1000 nM) for 16 hr before measurement of secreted u-PA present in the medium, which was expressed as a percentage of the activity measured in vehicle-treated controls. Values shown are means±SEM of triplicate determinations.

Experiment [2] relates to human PTH/PTHrP receptor. Nature of the experiment: Cytosolic free calcium (fura-2) in LLC-PK1 cells expressing human PTHR. The note with it: other experiments, hPTHR-expressing LLC-PK1 cells.
Experimental: Cytosolic free calcium was measured in fura 2AM-loaded confluent monolayers of cells.
Cytosolic free calcium was measured by dual fluorescence in cells loaded with the Ca^2+-sensitive intracellular probe fura-2. Cells were seeded onto glass coverslips at a density of 40,000-600,000/cm^2 and incubated for 2 days as described above. Coverslips were washed twice with PBS before loading in phosphate-free Buffer B containing 4 uM of fura-2/AM (Molecular Probes, Eugene, Oreg.) for 30 min at room temperature (22° C.). After washing twice with fura-free Buffer B, the coverslips were mounted in a cuvette containing 2 ml of phosphate-free Buffer B at 37° C. and the emission at 510 nm in response to alternating excitation at 340 and 380 nm was monitored using a ratiometric PTI Deltascan fluorescence spectrometer with excitation and emission bandwidths of 2 nm. After achieving a stable baseline, agonists were introduced by exchange into 2 ml of fresh buffer to which 10-20 ul of concentrated agonist stock (or vehicle alone) had been added. Peptide stocks were prepared in 0.1% trifluoroacetic acid, ionomycin and phorbol esters were dissolved in dimethyl sulfoxide and all other additives were prepared in water. Maximum and minimum fluorescence signals were obtained by exposure to modified buffers containing 1 uM ionomycin plus 20 mM calcium or 2 mM EGTA in the nominal absence of calcium, respectively, and autofluorescence was estimated from signals obtained in the presence of ionomycin plus 2.5 mM MnCl2.
Experiment [3] deals with T1, human PTH/PTHrP receptor. Nature of the experiment: Competitive radioligand (Scatchard) binding to human PTH/PTHrP receptors stably expressed in LLC-PK1 cells. Also noted: transfected with a full-length human PTH/PTHrP receptor cDNA; expressed in transfected cells. The note with it: Scatchard analysis, read-out: Apparent Kd. The protocol:
FIGS. 1A-1B and 1C-1D. Competitive radioligand binding to human PTH/PTHrp receptors stably expressed in LLC-PK1 cells. LLC-PK1 cells stably expressing (FIGS. 1A-1B) 950,000 receptors/cell (HKRK B7) or (FIGS. 1C-1D) 280,000 receptors/cell (HKRK B28) were incubated with ^125I-[Nle^8,18,Tyr^34]bPTH(1-34) in binding buffer for 6 hr at 15° C. in the presence or absence of increasing concentrations of nonradioactive ligand. Scatchard plots are shown in the insets. Each point represents the mean± of triplicate determinations. Total radioligand bound ranged from 15,000-30,000 cpm/well, and nonspecific binding was 2-5% of total binding.
(§1) In brief, the cells were seeded into 24-well plates at a density of 2.5×10^5 cells/well and cultured for a further 2 days before study. Cell layers were rinsed with ice-cold Buffer A [50 mM Tris-HCl (pH 7.7), 100 mM NaCl, 2 mM CaCl2, 5 mM KCl, 0.5% FBS, and 5% heat-inactivated horse serum] and then incubated with ^125I-labeled [Nle^8,18, Tyr^34]bovine (b) PTH(1-34) (1×10^5 cpm/well), with or without unlabeled peptide, in 0.5 ml of Buffer A for 6 h in the cold room (2-8° C.). […] All reagents, unless otherwise specified, were obtained from Sigma (St. Louis, Mo.), and all isotopes were purchased from Dupont-New England Nuclear (Boston, Mass.).
Radioligand competition assays and Scatchard analyses for two representative cell lines, HKRK B7 and HKRK B28, which express 950,000 and 280,000 hPTHRs per cell, respectively, are shown in FIGS. 1A-1D. […] In each case, the Scatchard analysis was linear, consistent with a single class of high affinity binding sites. The subsequent example described below was conducted with two cell lines, which were chosen as representative of those expressing relatively high (HKRK B7) and low (HKRK B28) densities of hPTHRs, respectively.

For another experiment, the target named is T2, rat PTHR (Rattus norvegicus, UniProt P25961).
T2 construct: expressed in transfected cells; host or cells: LLC-PK1 porcine renal epithelial cells (EW5; also EW29, AR-C38, AR-B44)
T2 sequence (P25961 27-591): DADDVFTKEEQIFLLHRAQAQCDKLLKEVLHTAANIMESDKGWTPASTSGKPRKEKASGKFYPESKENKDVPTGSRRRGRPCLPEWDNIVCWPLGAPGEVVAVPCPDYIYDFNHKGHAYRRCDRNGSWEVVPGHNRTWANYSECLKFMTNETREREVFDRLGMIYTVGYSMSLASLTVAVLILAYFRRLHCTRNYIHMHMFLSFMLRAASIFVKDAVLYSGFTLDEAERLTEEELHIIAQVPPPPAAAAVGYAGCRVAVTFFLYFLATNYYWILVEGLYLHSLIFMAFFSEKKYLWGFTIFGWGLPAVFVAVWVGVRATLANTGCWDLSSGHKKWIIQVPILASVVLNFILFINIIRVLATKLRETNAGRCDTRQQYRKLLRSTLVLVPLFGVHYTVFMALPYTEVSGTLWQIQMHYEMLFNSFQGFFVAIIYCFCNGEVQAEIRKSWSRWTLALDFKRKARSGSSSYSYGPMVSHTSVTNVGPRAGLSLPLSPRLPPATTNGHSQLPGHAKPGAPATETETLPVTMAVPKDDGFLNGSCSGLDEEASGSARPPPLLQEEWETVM
Nature of the experiment: Competitive radioligand (Scatchard) binding to rat PTHRs expressed in LLC-PK1 cells. The note with it: Scatchard analysis, read-out: Apparent Kd. The protocol: as §1

For `CCCCCCCCCCCCCC(=O)O[C@@H]1[C@@H](C)[C@@]2(O)[C@@H](C=C(CO)C[C@]3(O)C(=O)C(C)=C[C@@H]23)[C@H]2C(C)(C)[C@]12OC(C)=O` [TPA], on human PTH/PTHrP receptor [1], the “u-PA response in cAMP-resistant cells (in words)” value is “well-maintained”. For the same compound, in the experiment on human PTH/PTHrP receptor [2], the “calcium responses to PKA/PKC activators” value was “failed to elicit calcium responses”.
On to `CCCC[C@H](NC(=O)[C@H](CO)NC(=O)[C@H](CO)NC(=O)[C@H](CC(C)C)NC(=O)[C@H](Cc1c[nH]cn1)NC(=O)[C@H](CCCCN)NC(=O)CNC(=O)[C@H](CC(C)C)NC(=O)[C@H](CC(N)=O)NC(=O)[C@H](Cc1c[nH]cn1)NC(=O)[C@H](CCCC)NC(=O)[C@H](Cc1ccccc1)NC(=O)[C@H](CCC(N)=O)NC(=O)[C@@H](NC(=O)[C@H](CCC(=O)O)NC(=O)[C@H](CO)NC(=O)[C@@H](NC(=O)[C@H](C)N)C(C)C)[C@@H](C)CC)C(=O)N[C@@H](CCC(=O)O)C(=O)N[C@@H](CCCNC(=N)N)C(=O)N[C@H](C(=O)N[C@@H](CCC(=O)O)C(=O)N[C@@H](Cc1c[nH]c2ccccc12)C(=O)N[C@@H](CC(C)C)C(=O)N[C@@H](CCCNC(=N)N)C(=O)N[C@@H](CCCCN)C(=O)N[C@@H](CCCCN)C(=O)N[C@@H](CC(C)C)C(=O)N[C@@H](CCC(N)=O)C(=O)N[C@@H](CC(=O)O)C(=O)N[C@H](C(=O)N[C@@H](Cc1c[nH]cn1)C(=O)N[C@@H](CC(N)=O)C(=O)N[C@@H](Cc1ccc(O)cc1)C(N)=O)C(C)C)C(C)C` [[Nle^8,18, Tyr^34]bPTH(1-34), [Nle^8,18, Tyr^34]bovine (b) PTH(1-34)] (H-AVSEIQF[Nle]HNLGKHLSS[Nle]ERVEWLRKKLQDVHNY-NH2; N-terminus assumed), for which the Kd worked out at 3.6 nM on human PTH/PTHrP receptor [3] (HKRH C58 cells, 1030 x10^3 receptors/cell); 3.9 nM on human PTH/PTHrP receptor [3] (HKRK B5 cells, 840 x10^3 receptors/cell); 4.5 nM on human PTH/PTHrP receptor [3] (HKRK B7 cells, 950 x10^3 receptors/cell); 1.8 nM on human PTH/PTHrP receptor [3] (HKRK B28 cells, 280 x10^3 receptors/cell); 6.4 nM at human PTH/PTHrP receptor [3] (HKRK B54 cells, 1020 x10^3 receptors/cell); 5.6 nM at human PTH/PTHrP receptor [3] (HKRK B57 cells, 900 x10^3 receptors/cell). Moreover, the Kd on human PTH/PTHrP receptor [3] (HKRK B64 cells, 90 x10^3 receptors/cell) came to 1.3 nM; at human PTH/PTHrP receptor [3] (HKRK C27 cells, 340 x10^3 receptors/cell), 2.2 nM; at human PTH/PTHrP receptor [3] (HKRK C30 cells, 600 x10^3 receptors/cell), 2.8 nM; on human PTH/PTHrP receptor [3] (HKRK C53 cells, 120 x10^3 receptors/cell), 1.2 nM; at human PTH/PTHrP receptor [3] (HKRK C101 cells, 330 x10^3 receptors/cell), 1.6 nM; on rat PTHR (EW5 cells, 320 x10^3 rat receptors/cell) it was 2.3 nM. For the same compound, the Kd at rat PTHR (EW29 cells, 190 x10^3 rat receptors/cell) turned out to be 2.5 nM.

Values taken from patent publication US7033773B1, “Screening assays for G protein coupled receptor agonists and antagonists” (The General Hospital Corporation, priority 1997, dated 2006).
